Laboratory results published in patent US20110117208A1, “CHRONIC WOUND TREATMENT” (TECHNOSTICS LIMITED, priority 2008, published 2011).

How the values were obtained:
pepsin = target: T1, pepsin (Sus scrofa, UniProt P00791); assay: Trichloroacetic acid (TCA) precipitation assay, pepsin against haemoglobin; format: biochemical, porcine; conditions: pH 2; FIG. 4
T1 construct: purchased Sigma-Aldrich Ltd, UK; host or cells: porcine gastric mucosa
Procedure: The TCA assay is based on the method described by M. L. Anson (1938). J General Physiol, 22, 79-89. The substrate, bovine haemoglobin, is digested by pepsin. Any remaining undigested haemoglobin is then precipitated with TCA to yield a supernatant which contains only products of digested haemoglobin. The concentration of haemoglobin breakdown products in the supernatant is measured spectrophotometrically and provides an indication of proteinase activity. The TCA precipitation assay was used to determine the inhibitory effect of polyphosphates and trimetaphosphate on the action of pepsin against haemoglobin.
A series of test solutions containing between 0-306 mg/ml of the proposed inhibitor were prepared. 100 μl of this test solution was then thoroughly mixed with 100 μl of pepsin solution on a vortex mixer before 1500 μl of buffered bovine haemoglobin solution was added and mixed. The inhibitor:enzyme:haemoglobin sample was then incubated in a heated water bath for 30 minutes at 37° C. The samples was then removed from the incubator, mixed with 2.0 ml TCA solution and left to stand for 30 minutes in iced water. […] The absorbance of the supernatant was measured at 280 nm (Labsystems Multiskan Ascent 354, ThermoFisher Scientific, Horsham, West Sussex, UK) using deionised water as a blank. […]

elastase = target: T2, elastase (Sus scrofa, UniProt P00772); assay: Elastin Congo red assay; format: biochemical, porcine; conditions: pH 8; FIG. 12, 13, 14
T2 construct: Elastase (from porcine pancreas Type I, aqueous); purchased Sigma-Aldrich Ltd, UK; host or cells: porcine pancreas
T2 sequence (P00772 27-266): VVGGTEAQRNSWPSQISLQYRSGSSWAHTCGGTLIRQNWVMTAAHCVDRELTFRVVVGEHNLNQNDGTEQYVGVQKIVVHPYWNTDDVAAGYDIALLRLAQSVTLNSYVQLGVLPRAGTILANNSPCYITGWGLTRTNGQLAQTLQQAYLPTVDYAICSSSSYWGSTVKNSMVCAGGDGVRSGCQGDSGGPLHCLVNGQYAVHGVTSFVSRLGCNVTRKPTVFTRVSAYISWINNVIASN
Procedure: Elastin Congo red is a commercially available elastin substrate impregnated with the chromophore Congo red. In the presence of elastase the Congo red dye is liberated from the elastin and the resulting colour change can be measured and correlated with elastolytic activity. The elastin Congo red assay was used to determine the inhibitory effect of polyphosphates and trimetaphosphate on the elastase against the elastin Congo red substrate.
A series of test solutions containing between 0-306 mg/ml of the proposed inhibitor were prepared. 100 μl of this test solution was then thoroughly mixed with 100 μl of elastase solution on a vortex mixer. […] of buffered Elastin Congo red solution was then added and mixed. The inhibitor:enzyme:Elastin Congo red sample was then incubated overnight in a heated water bath at 37° C. Samples were then removed from the water bath and placed in iced water to cool for 30 minutes before being centrifuged (Fisher Scientific, accuSpin Model 400 Benchtop Centrifuge) at 13000 rpm for 5 minutes. The absorbance of the supernatant was measured at 540 nm (Labsystems Multiskan Ascent 354, ThermoFisher Scientific, Horsham, West Sussex, UK) using deionised water as a blank. […]

T1 sequence (P00791 60-385): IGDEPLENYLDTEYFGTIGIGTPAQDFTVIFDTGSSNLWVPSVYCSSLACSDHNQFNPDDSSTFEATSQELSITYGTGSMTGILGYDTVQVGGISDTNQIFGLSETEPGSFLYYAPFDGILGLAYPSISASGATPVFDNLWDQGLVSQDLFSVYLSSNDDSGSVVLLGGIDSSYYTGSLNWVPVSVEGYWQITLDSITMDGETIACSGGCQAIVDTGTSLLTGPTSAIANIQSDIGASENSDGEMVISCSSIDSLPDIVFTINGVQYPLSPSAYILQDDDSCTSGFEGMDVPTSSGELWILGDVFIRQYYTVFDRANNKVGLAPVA

With O=P1([O-])OP(=O)([O-])OP(=O)([O-])O1.[Na+].[Na+].[Na+] [sodium trimetaphosphate] the “inhibition of pepsin (in words)” value (pepsin) was “could also inhibit pepsin across a wide concentration range; however, the potency and extent of inhibition at maximal concentrations was not as large as that observed with polyphosphates” and the “inhibition of elastase (in words, comparison)” value (elastase) was “could also inhibit elastase across a wide concentration range; however, the extent of inhibition at maximal concentrations was not as large as that observed with polyphosphates”.
